26 compounds from US10577363B2, “Substituted piperidine compounds” (EPIZYME, INC., priority 2014, dated 2020) can be followed below.

As usually defined, the IC50 is the concentration that gives 50% inhibition.

The target of the test is SMYD3 (Homo sapiens (Human), UniProt Q9H7B4). Description: SMYD3 biochemical assay (SPA, 3H-SAM methylation of MEKK2 protein substrate). To be noted: read-out: SMYD3 Biochem IC50 (μM)*. An excerpt: S-adenosylmethionine (SAM), S-adenosylhomocysteine (SAH), Tris, Tween20, dimethylsulfoxide (DMSO), bovine skin gelatin (BSG), and Tris(2-carboxyethyl)phosphine hydrochloride solution (TCEP) were purchased from Sigma-Aldrich at the highest level of purity possible. ^3H-SAM was purchase from American Radiolabeled Chemicals with a specific activity of 80 Ci/mmol. 384-well opaque white OptiPlates and SPA beads (Perkin Elmer, catalog # RPNQ0013) were purchased from PerkinElmer.
N-terminally GST-tagged MEKK2 (MAP3K2) protein corresponding to reference sequence AAF63496.3 was purchased from Life Technologies (catalog # PV4010). This protein was expressed in High Five insect cells and purified to >85% purity. Protein identity was confirmed by MS/MS analysis after proteolytic digestion. The protein sequence used was:
Full-length human SMYD3 isoform 1 (BAB86333) was inserted into a modified pET21b plasmid containing a His6 tag and TEV and SUMO cleavage sites.
E. coli (BL21 codonplus RIL strain, Stratagene) were transformed with plasmid pEPZ553 by mixing competent cells and plasmid DNA and incubating on ice for 30 minutes followed by heat shock at 42° C. for 1 minute and cooling on ice for 2 minutes. Transformed cells were grown and selected on LB agar with 100 μg/mL ampicillin and 17 μg/mL chloramphenicol at 37° C. overnight. A single clone was used to inoculate 200 mL of LB medium with 100 μg/mL ampicillin and 17 μg/mL chloramphenicol and incubated at 37° C. on an orbital shaker at 180 rpm. Once in log growth, the culture was diluted 1:100 into 2 L of LB medium and grown until OD600 was about 0.3 after which the culture was incubated at 15° C. and 160 rpm. Once OD600 reached about 0.4, IPTG was added to a final concentration of 0.1 mM and the cells were grown overnight at 15° C. and 160 rpm. Cells were harvested by centrifugation at 8000 rpm, for 4 minutes at 4° C. and stored at −80° C. for purification.
The column was washed with Buffer B (Buffer A plus 20 mM imidazole) and His-tagged SMYD3 was eluted with Buffer C (Buffer A plus 300 mM imidazole). The His tag, TEV and SUMO cleavage sites were removed generating native SMYD3 by addition of ULP1 protein at a ratio of 1:200 (ULP1:SMYD3). Imidazole was removed by dialysis overnight in Buffer A. The dialyzed solution was applied to a second Nickel column and the native SMYD3 protein was collected from the column flow-through. The flow-through was dialyzed in Buffer D (25 mM Tris, 5% glycerol, 5 mM β-mercaptoethanol, 50 mM NaCl, pH7.8) and ULP1 was removed using a Q sepharose fast flow column.
General Procedure for SMYD3 Enzyme Assays on MEKK2 Protein Substrate
The assays were all performed in a buffer consisting of 25 mM Tris-Cl pH 8.0, 1 mM TCEP, 0.005% BSG, and 0.005% Tween 20, prepared on the day of use. […] DMSO (1 ul) was added to Columns 11, 12, 23, 24, rows A-H for the maximum signal control and 1 ul of SAH, a known product and inhibitor of SMYD3, was added to columns 11, 12, 23, 24, rows I-P for the minimum signal control. A cocktail (40 ul) containing the SMYD3 enzyme was added by Multidrop Combi (Thermo-Fisher). The compounds were allowed to incubate with SMYD3 for 30 min at room temperature, then a cocktail (10 ul) containing SAM and MEKK2 was added to initiate the reaction (final volume=51 ul). […] The assays were stopped by the addition of non-radiolabeled SAM (10 ul) to a final concentration of 100 uM, which dilutes the ^3H-SAM to a level where its incorporation into MEKK2 is no longer detectable. Radiolabeled MEKK2 was detected using a scintillation proximity assay (SPA). 10 uL of a 10 mg/mL solution of SPA beads in 0.5 M citric acid was added and the plates centrifuged at 600 rpm for 1 min to precipitate the radiolabeled MEKK2 onto the SPA beads. The plates were then read in a PerkinElmer TopCount plate reader to measure the quantity of ^3H-labeled MEKK2 as disintegrations per minute (dpm) or alternatively, referred to as counts per minute (cpm).
For `N[C@@H](Cc1ccccc1)C(=O)N1CCC(NC(=O)c2cc(C3CC3)on2)CC1` [compound 1, N-(1-(L-phenylalanyl)piperidin-4-yl)-5-cyclopropylisoxazole-3-carboxamide], the IC50 was determined as 2.88 µM.
The same measure for `N[C@H](Cc1c[nH]c2ccccc12)C(=O)N1CCC(NC(=O)c2cc(C3CC3)on2)CC1` [compound 2, N-(1-(D-tryptophyl)piperidin-4-yl)-5-cyclopropylisoxazole-3-carboxamide]: 15.5 µM.
For `N[C@@H](Cc1ccc(O)cc1)C(=O)N1CCC(NC(=O)c2cc(C3CC3)on2)CC1` [compound 3, N-(1-(L-tyrosyl)piperidin-4-yl)-5-cyclopropylisoxazole-3-carboxamide], the IC50 was 0.486 µM.
The same measure for `NCC(=O)N[C@@H](Cc1c[nH]c2ccccc12)C(=O)N1CCC(NC(=O)c2cc(C3CC3)on2)CC1` [compound 4, 5-cyclopropyl-N-(1-(glycyl-L-tryptophyl)piperidin-4-yl)isoxazole-3-carboxamide]: 0.947 µM.
The same measure for `C[C@@H]1CC(NC(=O)c2cc(C3CC3)on2)CCN1C(=O)[C@@H](N)Cc1ccc(O)cc1` (stereo partly drawn) [compound 6, N-((2R)-1-(L-tyrosyl)-2-methylpiperidin-4-yl)-5-cyclopropylisoxazole-3-carboxamide]: 2.97 µM; for `C[C@H]1CC(NC(=O)c2cc(C3CC3)on2)CCN1C(=O)[C@@H](N)Cc1ccc(O)cc1` (stereo partly drawn) [compound 7, N-((2S)-1-(L-tyrosyl)-2-methylpiperidin-4-yl)-5-cyclopropylisoxazole-3-carboxamide]: 1.04 µM; for `CN[C@@H](Cc1cn(C)c2ccccc12)C(=O)N1CCC(NC(=O)c2cc(C3CC3)on2)CC1` [compound 8, 5-cyclopropyl-N-(1-(Na,1-dimethyl-L-tryptophyl)piperidin-4-yl)isoxazole-3-carboxamide]: 1.2 µM.
With `N[C@@H](Cc1ccc(O)c(Br)c1)C(=O)N1CCC(NC(=O)c2cc(C3CC3)on2)CC1` [compound 9, (S)-N-(1-(2-amino-3-(3-bromo-4-hydroxyphenyl)propanoyl)piperidin-4-yl)-5-cyclopropylisoxazole-3-carboxamide], the IC50 amounted to 0.214 µM.
Under `NC[C@H](Cc1ccccc1)C(=O)N1CCC(NC(=O)c2cc(C3CC3)on2)CC1` [compound 11, (S)-N-(1-(3-amino-2-benzylpropanoyl)piperidin-4-yl)-5-cyclopropylisoxazole-3-carboxamide] stands 2.41 µM; under `N[C@H]1CC[C@H](C(=O)N2CCC(NC(=O)c3cc(C4CC4)on3)CC2)CC1` [compound 13, N-(1-((1r,4R)-4-aminocyclohexane-1-carbonyl)piperidin-4-yl)-5-cyclopropylisoxazole-3-carboxamide], 1.29 µM.
The same measure for `N[C@@H](Cc1ccc(O)cc1)CN1CCC(NC(=O)c2cc(C3CC3)on2)CC1` [compound 14, (S)-N-(1-(2-amino-3-(4-hydroxyphenyl)propyl)piperidin-4-yl)-5-cyclopropylisoxazole-3-carboxamide]: 4.59 µM; for `O=C(NC1CCN(C(=O)C2CCNCC2)CC1)c1cc(C2CC2)on1` [compound 15, 5-cyclopropyl-N-(1-(piperidine-4-carbonyl)piperidin-4-yl)isoxazole-3-carboxamide]: 8.55 µM; for `CN1CCC(C(=O)N2CCC(NC(=O)c3cc(C4CC4)on3)CC2)CC1` [compound 16, 5-cyclopropyl-N-(1-(1-methylpiperidine-4-carbonyl)piperidin-4-yl)isoxazole-3-carboxamide]: 10 µM.
Consider `O=C(NC1CCN(C(=O)CC2CCNCC2)CC1)c1cc(C2CC2)on1` [compound 17, 5-cyclopropyl-N-(1-(2-(piperidin-4-yl)acetyl)piperidin-4-yl)isoxazole-3-carboxamide], for which the IC50 stood at 1.06 µM.
The same measure for `CN1CCC(CC(=O)N2CCC(NC(=O)c3cc(C4CC4)on3)CC2)CC1` [compound 18, 5-cyclopropyl-N-(1-(2-(1-methylpiperidin-4-yl)acetyl)piperidin-4-yl)isoxazole-3-carboxamide]: 5.08 µM; for `O=C(NC1CCN(C(=O)[C@@H](CO)Cc2ccccc2)CC1)c1cc(C2CC2)on1` [compound 19, (R)-N-(1-(2-benzyl-3-hydroxypropanoyl)piperidin-4-yl)-5-cyclopropylisoxazole-3-carboxamide]: 30.9 µM; for `N[C@H]1C[C@H](C(=O)N2CCC(NC(=O)c3cc(C4CC4)on3)CC2)C1` [compound 20, N-(1-((1r,3r)-3-aminocyclobutane-1-carbonyl)piperidin-4-yl)-5-cyclopropylisoxazole-3-carboxamide]: 5.77 µM.
The same measure for `N[C@H]1C[C@@H](C(=O)N2CCC(NC(=O)c3cc(C4CC4)on3)CC2)C1` [compound 21, N-(1-((1s,3s)-3-aminocyclobutane-1-carbonyl)piperidin-4-yl)-5-cyclopropylisoxazole-3-carboxamide]: 5.69 µM.
Under `C[C@H]1CN(C(=O)[C@H]2CC[C@H](N)CC2)CCC1NC(=O)c1cc(C2CC2)on1` (stereo partly drawn) [compound 24, N-((3S)-1-((1r,4S)-4-aminocyclohexane-1-carbonyl)-3-methylpiperidin-4-yl)-5-cyclopropylisoxazole-3-carboxamide] stands 2 µM.
On to `C[C@@H]1CN(C(=O)[C@H]2CC[C@H](N)CC2)CCC1NC(=O)c1cc(C2CC2)on1` (stereo partly drawn) [compound 25, N-((3R)-1-((1r,4R)-4-aminocyclohexane-1-carbonyl)-3-methylpiperidin-4-yl)-5-cyclopropylisoxazole-3-carboxamide], for which the IC50 stood at 0.299 µM.
The same measure for `NC[C@@H](Cc1ccc(O)cc1)C(=O)N1CCC(NC(=O)c2cc(C3CC3)on2)CC1` [compound 26, (R)-N-(1-(3-amino-2-(4-hydroxybenzyl)propanoyl)piperidin-4-yl)-5-cyclopropylisoxazole-3-carboxamide]: 5.24 µM; for `NC[C@H](Cc1ccc(O)cc1)C(=O)N1CCC(NC(=O)c2cc(C3CC3)on2)CC1` [compound 27, (S)-N-(1-(3-amino-2-(4-hydroxybenzyl)propanoyl)piperidin-4-yl)-5-cyclopropylisoxazole-3-carboxamide]: 0.342 µM.
Under `NC[C@@H](Cc1ccc(O)c(I)c1)C(=O)N1CCC(NC(=O)c2cc(C3CC3)on2)CC1` [compound 28, (R)-N-(1-(3-amino-2-(4-hydroxy-3-iodobenzyl)propanoyl)piperidin-4-yl)-5-cyclopropylisoxazole-3-carboxamide] stands 2.04 µM; under `O=C(NC1CCN(C[C@H](O)Cc2ccc(O)cc2)CC1)c1cc(C2CC2)on1` [compound 30, (R)-5-cyclopropyl-N-(1-(2-hydroxy-3-(4-hydroxyphenyl)propyl)piperidin-4-yl)isoxazole-3-carboxamide], 42.7 µM; under `O=C(NC1CCN(C(=O)[C@@H](CO)Cc2ccc(O)c(I)c2)CC1)c1cc(C2CC2)on1` [compound 31, (R)-5-cyclopropyl-N-(1-(3-hydroxy-2-(4-hydroxy-3-iodobenzyl)propanoyl)piperidin-4-yl)isoxazole-3-carboxamide], 5.1 µM.
Under `C[C@H](N)CC(=O)NC[C@@H](Cc1ccc(O)c(I)c1)C(=O)N1CCC(NC(=O)c2cc(C3CC3)on2)CC1` [compound 32, N-(1-((R)-3-((S)-3-aminobutanamido)-2-(4-hydroxy-3-iodobenzyl)propanoyl)piperidin-4-yl)-5-cyclopropylisoxazole-3-carboxamide] stands 4.11 µM.
